Experimental data as given in PMC9805685, “Isolation, bioassay and 3D-QSAR analysis of 8-isopentenyl flavonoids from Epimedium sagittatum maxim. as PDE5A inhibitors” (Chinese Medicine, 2022).
Several values for one entry are separate records, joined by “and”; a condition that tells them apart may be missing. Identical values can stand only once. Like-named read-outs stand apart in the source and are kept apart here.

Experiments:
[1] = target: T1, PDE5A1 (Homo sapiens, UniProt O76074); assay: PDE5A1 inhibition assay, enzyme reaction with HPLC detection of cGMP; type: biochemical; settings: 0.15 µg/mL PDE5A1, 7.5 µg/mL cGMP, 90 min at 35 ℃
Procedure: 50 μL analytes were injected and separated on the C18 5 μm column with a flow rate of 1 mL/min at 30 °C column temperature. The mobile phase consisted of methanol and 0.05 mol/L potassium dihydrogen phosphate (10:90, V/V).
All components for assay were diluted in assay buffer which contained 100 mM MgCl2 and 50 mM Tris–HCl (pH 8.0). The compounds were dissolved in DMSO and then further diluted to the desired concentration with assay buffer. 30 μL PDE5A1 solution and 30 μL compound solution were mixed at room temperature and incubated for 5 min, followed by addition of with 30 μL cGMP solution, and the reaction was carried out at 35 °C for 90 min. After the assay, each vial was incubated in 100 °C boiling water for 5 min to inactivate the PDE5A1 activity, and then was cooled to be detected with HPLC. No PDE5A1 was used as the positive control, and DMSO was used as the negative control. Percentage inhibition was calculated using the peak area of HPLC with the following formula.
For dose–response experiments, the PDE5A1 inhibitors were diluted to 7 concentrations series with fourfold gradient. Two individual operations were performed on different dates as the repetition.
For developing the screening method for PDE5A1 inhibitors, the in vitro enzyme reaction and HPLC detection were combined. […] The concentrations of enzyme and substrate are important parameters in the inhibitor screening assay.

[2] = target: T1, PDE5A1; assay: CoMFA 3D-QSAR model prediction of PDE5A1 activity; settings: EA minus PA
Procedure: (§1) All molecular modeling and calculations were performed by the Sybyl program package. The structures of all compounds were constructed using the Sketch Molecule module. Structural energy minimization was carried out using the standard Tripos molecular mechanics force field and Gasteiger-Huckle charge, with the convergence criterion set at 0.005 kcal/(Å·mol) and the max iterations for the minimization set to 10,000.
The 3D cubic lattice region was created automatically and the grid spacing was set at 1.7 Å in the x, y, and z directions. A sp^3 carbon atom with + 1 net charge was taken as the probe atom and steric and electrostatic interactions were calculated by using the Tripos force field. A cutoff of 30 kcal/mol was adopted in calculating energies. With standard options for scaling of variables, the regression analysis was carried out using partial least squares (PLS) method. The cross-validation with Leave-One-Out (LOO) option was carried out to obtain the optimum number of components (ONC).The final model (non-cross-validated conventional analysis) was developed with the optimum number of components. Region focusing is an advanced strategy that improves prediction ability of the initial built CoMFA model. CoMFA region focusing method refines a model by increasing the weights of the lattice points. StDev × coefficient values were used as weights.

[3] = system: cGMP level of CCSMCs; assay: cGMP assay in CCSMCs by ELISA; type: cell-based, rat; settings: 10 μM, 48 h
From the text: (§2) Male Sprague–Dawley (SD) rats (180–220 g) were purchased from Shanghai SLAC Laboratory Animal Co., Ltd. This experiment protocol was approved by the standardizing laboratory animal ethical review of Shanghai University of Traditional Chinese Medicine. After removal of the corpus spongiosum, subcutaneous tissue and deep fascia of penises of SD rats, the corpus cavernosum tissue was cut into small pieces of less than 2mm^3 and digested with 0.5% collagenase I and 20% fetal bovine serum (PFES) in DMEM for 4 h. The cell suspensions were collected by mesh filtration and centrifugation, and cultured in DMEM containing 20% PFES and 1 × antibiotics at 37 °C in a humidified atmosphere with 5% CO2. After 24 h culture, spindle CCSMCs attached to the culture dish. The medium was replaced with DMEM containing 10% PFES when CCSMCs reached 70% confluence.
CCSMCs were seeded in 6-well plate at a density of 100,000/well for 24 h, and then were treated with 10 μM 1 ~ 3 for 48 h. The cells were lysed by 0.1 M hydrochloric acid with 200 μl per well for 20 min incubation, then the supernatant was collected and determined the cGMP content by ELISA.

[4] = system: cytoplasmic calcium in CCSMCs; assay: Fluorescent staining of calcium (Fluo-4AM) in CCSMCs; type: cell-based, rat; settings: for fluorescence intensity of cytoplasmic calcium in CCSMCs: 10 uM, 30 min, Fluo-4 AM
From the text: as §2
CCSMCs were cultured in 6-well plate at a density of 100,000/well for 48 h. Then cells were stained by Fluo-4AM for 30 min prior to […] 1 ~ 3 exposure for 30 min in the presence or absence of 10 μM Rp-8-Br-cGMPS (the protein kinase G inhibitor). After PBS rinse, the cytosolic calcium was observed by fluorescence microscope.

[5] = target: T1, PDE5A1; assay: CoMSIA 3D-QSAR model prediction of PDE5A1 activity; settings: EA minus PA
Procedure: as §1
Although CoMSIA is similar to CoMFA, CoMSIA not only computes the steric and electrostatic fields, but also calculates additional hydrophobic, hydrogen-bond donor, and hydrogen-bond acceptor fields. CoMSIA descriptors were calculated with the same lattice box, grid spacing and probe atom as that used for the CoMFA calculations. In CoMSIA analysis, the five different descriptor fields are not totally independent from each other. Given that the size of dataset, we decided to use three of five fields as the descriptors.

[6] = target: T1, PDE5A1; settings: converted from literature IC50; cited from earlier work

| SMILES | CoMFA residual [2] | IC50 ([1]; read-out: PDE5A1 (IC50 ± SD)) | CoMSIA residual [5] | pIC50 (-logIC50), experimental activity (EA) [6] | other results |
| --- | --- | --- | --- | --- | --- |
| COc1ccc(-c2oc3c(CC=C(C)C)c(OC4OC(CO)C(O)C(O)C4O)cc(O)c3c(=O)c2OC2OC(C)C(O)C(O)C2OC2OCC(O)C(O)C2O)cc1 (centres unmarked) [Compound 5, epimedin B] | 0.032 | 358 ± 34.2 µM | – | – | – |
| COc1ccc(-c2oc3c(CC=C(C)C)c(OC4OC(CO)C(O)C(O)C4O)cc(O)c3c(=O)c2OC2OC(C)C(O)C(O)C2OC2OC(C)C(O)C(O)C2O)cc1 (centres unmarked) [Compound 6, epimedin C] | – | 682 µM | 0.037 | – | – |
| COc1ccc(/C=C/C(=O)c2c(OCc3ccccc3)cc(OC)c(OC)c2OC)cc1OC [Compound 12] | – | – | – | 5.229 | – |
| COc1ccc(OC)c(C(=O)/C=C/c2ccc(OC)c(OC)c2)c1 [Compound 13] | – | – | – | 5.155 | – |
| Nc1nc2c(nc(Br)n2[C@@H]2O[C@@H]3COP(O)(=S)O[C@H]3[C@H]2O)c(=O)[nH]1 (some centres unmarked) [Rp-8-Br-cGMPS, reference compound] | – | – | – | – | effect on calcium down-regulation by 1 ~ 3 in CCSMCs ([4]; 10 μM Rp-8-Br-cGMPS together with 1 ~ 3, 30 min): blocked the down-regulated calcium levels |
| CCCc1nn(C)c2c(=O)[nH]c(-c3cc(S(=O)(=O)N4CCN(C)CC4)ccc3OCC)nc12 [Sildenafil, sildenafil] | 0.068 | – | – | – | – |

Further lines, with some results ahead:

| CoMFA residual [2] | IC50 ([1]; read-out: PDE5A1 (IC50 ± SD)) | CoMSIA residual [5] | SMILES | pIC50 (-logIC50), experimental activity (EA) [6] | other results |
| --- | --- | --- | --- | --- | --- |
| 0.034 | – | – | COc1ccc(-c2oc3c(CC=C(C)C)c(O[C@@H]4O[C@H](CO)[C@@H](O)[C@H](O)[C@H]4O)cc(O)c3c(=O)c2O[C@@H]2O[C@@H](C)[C@H](O)[C@@H](O)[C@H]2O)cc1 [Compound 1, icariin] | – | IC50 ([1]; PDE5A1 (IC50 ± SD)): 8.28 µM and 8.27 µM; cGMP level of CCSMCs [3]: increase cGMP level; fluorescence intensity of cytoplasmic calcium in CCSMCs [4]: decrease cytoplasmic Ca^2+ |
| 0.015 | 3.23 µM | – | COc1ccc(-c2oc3c(CC=C(C)C)c(O)cc(O)c3c(=O)c2OC2OC(C)C(O)C(O)C2OC2OC(C)C(O)C(O)C2O)cc1 (centres unmarked) [Compound 2, 2-O"-rhamnosylicaridide II] | – | cGMP level of CCSMCs [3]: increase cGMP level; fluorescence intensity of cytoplasmic calcium in CCSMCs [4]: decrease cytoplasmic Ca^2+ |
| – | 5.47 µM and 5.48 µM | 0.013 | COc1ccc(-c2oc3c(CC=C(C)C)c(O)cc(O)c3c(=O)c2O[C@@H]2O[C@@H](C)[C@H](O)[C@@H](O)[C@H]2O)cc1 [Compound 3, baohuoside I] | – | cGMP level of CCSMCs [3]: increase cGMP level; fluorescence intensity of cytoplasmic calcium in CCSMCs [4]: decrease cytoplasmic Ca^2+ |
| – | 409 ± 31.4 µM | – | COc1ccc(-c2oc3c(CC=C(C)C)c(OC4OC(CO)C(O)C(O)C4O)cc(O)c3c(=O)c2OC2OC(C)C(O)C(O)C2OC2OC(CO)C(O)C(O)C2O)cc1 (centres unmarked) [Compound 4, epimedin A] | – | – |
| 0.105 | – | 0.058 | COc1ccc(-c2oc3c(CC=C(C)C)c(O)cc(O)c3c(=O)c2O)cc1 [Compound 7] | – | – |
| – | – | 0.000 | COc1ccc(-c2oc3c(CC=C(C)C)c(OCCO)cc(O)c3c(=O)c2OC2OC(C)C(O)C(O)C2O)cc1 (centres unmarked) [Compound 8] | 6.444 | – |
| 0.296 | – | 0.562 | COc1ccc(C(=O)/C=C\c2cc(OC)c(OC)cc2OC)c(OC)c1 [Compound 10] | 5.745 | – |
| 0.06 | – | 0.025 | COc1cccc(/C=C/C(=O)c2c3c(c(OC)c4c2OCO4)CN(C)CC3)c1 [Compound 14] | 5.208 | – |
| – | – | 0.001 | CCCOc1ccccc1-c1nc2n[nH]nc2c(=O)[nH]1 [Compound 17] | – | – |
